Consider ten compounds from patent EP4729529A1, “PREPARATION OF PEPTIDE INHIBITOR OF INTERLEUKIN-23 RECEPTOR AND USE THEREOF” (Xizang Haisco Pharmaceutical Co., Ltd., priority 2023, dated 2024).

Starred links: 1 amine or outer side, 2 acyl side, 3 side chain; linkers in the order of their positions; H or OH if unused. Positions of bridges follow the written chain, without caps; N, C: chain ends. Non-standard residues stand in square brackets, D forms with d. Residues, ends and D or L forms follow the SMILES beside them. Groups on a side chain read outwards from the residue. *: point of attachment. Phe(4-OC2H4NH2,2,3-(CH2)3) = NCCOc1ccc(C[C@H](N)C(=O)O)c2c1CCC2; Trp(7-cPr) = N[C@@H](Cc1c[nH]c2c(C3CC3)cccc12)C(=O)O; X4 = COCCOCCOCCOCCOCCOCCOCCOCCOCCOCCOCCOCCOCC(=O)*; NH(CH2CH2O)4CH2CO = O=C(COCCOCCOCCOCCN[*:1])[*:2]; Trp(7-Me) = Cc1cccc2c(C[C@H](N)C(=O)O)c[nH]c12; X6 = COCCOCCOCCOCCOCCOCCOCCOCCOCCOCC(=O)*; γGlu = O=C(O)[C@H](CCC(=O)[*:2])N[*:1]; 2Nal = N[C@@H](Cc1ccc2ccccc2c1)C(=O)O; X1 = O=C(C(N[*:1])C1(S[*:3])CC1)[*:2]; Thp(SO2) = NC1(C(=O)O)CCS(=O)(=O)CC1; AEF = NCCOc1ccc(C[C@H](N)C(=O)O)cc1; Adipoyl = O=C(CCCCC(=O)[*:2])[*:1]; 3Pal = N[C@@H](Cc1cccnc1)C(=O)O; Pen = CC(C)(S)[C@H](N)C(=O)O; Thp = NC1(C(=O)O)CCOCC1; AEEA = NCCOCCOCC(=O)O; AEA = NCCOCC(=O)O; Sar = CNCC(=O)O

In this experiment the target is T1, IL-23α/IL-12β and IL-23R (Homo sapiens, UniProt Q5VWK5).
T1 construct: purchased ACRO ILR-H82F3 (IL-23R); ILB-H52W5 (IL-23α/IL-12β)
T1 sequence (Q5VWK5 24-353 limits assumed): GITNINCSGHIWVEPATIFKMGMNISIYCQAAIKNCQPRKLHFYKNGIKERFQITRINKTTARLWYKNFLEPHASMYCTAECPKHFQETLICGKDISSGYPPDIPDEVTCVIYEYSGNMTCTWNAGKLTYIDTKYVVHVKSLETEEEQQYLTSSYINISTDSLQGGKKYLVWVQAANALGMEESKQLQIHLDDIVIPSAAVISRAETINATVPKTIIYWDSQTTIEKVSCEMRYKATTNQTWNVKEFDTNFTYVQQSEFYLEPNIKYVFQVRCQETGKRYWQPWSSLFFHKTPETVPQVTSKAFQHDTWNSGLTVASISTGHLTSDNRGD
Kind of experiment: IL-23α/IL-12β and IL-23R binding assay (TR-FRET/HTRF). Conditions: inhibition of the binding of IL-23α/IL-12β to IL-23R, TR-FRET; both proteins 0.3 nM. Here is the method:
1. IL-23α/IL-12β and IL-23R binding assay
Compounds were tested for their inhibition on the binding of IL-23α/IL-12β to IL-23R by the TR-FRET method. Solutions of proteins IL-23α/IL-12β (ACRO, Cat# ILB-H52W5) and IL-23R (ACRO, Cat# ILR-H82F3) were prepared in reaction buffer PPI (PerkinElmer, Cat# 61DB10RDF). The final concentrations of IL-23α/IL-12β and IL-23R in the reaction mixture were both 0.3 nM. Positive reference Guselkumab was 3-fold diluted from an initial concentration of 30 nM, with 10 doses. 0.1 µL of the positive reference diluted in the reaction buffer was delivered to a 384-well plate (Grenier, Cat# 784075) by the acoustic liquid delivery technique (Echo 655), and the plate was centrifuged at 1000 rpm for 1 minute. 2.5 µL of IL-23α/IL-12β solution was transferred into the 384-well reaction plate, and the plate was centrifuged at 1000 rpm for 1 minute, and incubated at 25°C for 60 minutes. 2.5 µL of IL-23R solution was transferred into the 384-well reaction plate, and the plate was centrifuged at 1000 rpm for 1 minute. 5 µL of Streptavidin-Tb cryptate and Anti 6HIS-d2 detection mixture was transferred into the 384-well reaction plate, and the plate was centrifuged at 1000 rpm for 1 minute, and incubated at 25°C for 60 minutes. Finally, the HTRF signal (Ratio 665/620 nm) was read with a BMG high-throughput drug screening multifunctional microplate reader. IC50 values were obtained by nonlinear regression curve fitting using GraphPad Prism software.

The compound `CC(=O)NCCCC[C@@H]1NC(=O)[C@H](Cc2c[nH]c3c(C)cccc23)NC(=O)[C@H]([C@@H](C)O)NC(=O)[C@H](Cc2c[nH]cn2)NC(=O)[C@H]2NC(=O)COCCNC(=O)CC[C@@H](C(=O)N[C@@H](CC(N)=O)C(=O)N[C@@H](Cc3cccnc3)C(=O)N(C)CC(N)=O)NC(=O)C3(CCOCC3)NC(=O)[C@H](Cc3ccc4ccccc4c3)NC(=O)[C@H](Cc3ccc(OCCN)cc3)NC(=O)[C@@H](NC1=O)C(C)(C)SSC2(C)C` [Compound 38] ([AEA][Pen]HT[Trp(7-Me)]K(Ac)[Pen][AEF][2Nal][Thp]EN[3Pal][Sar]-NH2; disulfide 2-7 (inferred); lactam N-11 (inferred)) gave an IC50 of 0.212 nM.

`COCCOCCOCCOCCOCCOCCOCCOCCOCCOCC(=O)N[C@@H]1C(=O)N[C@@H](Cc2c[nH]cn2)C(=O)N[C@@H]([C@@H](C)O)C(=O)N[C@@H](Cc2c[nH]c3c(C4CC4)cccc23)C(=O)N[C@@H](CCC(N)=O)C(=O)N[C@H](C(=O)N[C@@H](Cc2ccc(OCCN)c3c2CCC3)C(=O)N[C@@H](Cc2ccc3ccccc3c2)C(=O)NC2(C(=O)N[C@@H](CCC(=O)O)C(=O)N[C@@H](CC(N)=O)C(=O)N[C@@H](Cc3cccnc3)C(=O)N(C)CC(N)=O)CCS(=O)(=O)CC2)C(C)(C)SSC1(C)C` [Compound 39] (X6-[Pen]HT[Trp(7-cPr)]Q[Pen][Phe(4-OC2H4NH2,2,3-(CH2)3)][2Nal][Thp(SO2)]EN[3Pal][Sar]-NH2; disulfide 1-6) showed an IC50 of 0.057 nM.

The compound `COCCOCCOCCOCCOCCOCCOCCOCCOCCOCCOCCOCCOCC(=O)N[C@@H]1C(=O)N[C@@H](Cc2c[nH]cn2)C(=O)N[C@@H]([C@@H](C)O)C(=O)N[C@@H](Cc2c[nH]c3c(C4CC4)cccc23)C(=O)N[C@@H](CCC(N)=O)C(=O)N[C@H](C(=O)N[C@@H](Cc2ccc(OCCN)c3c2CCC3)C(=O)N[C@@H](Cc2ccc3ccccc3c2)C(=O)NC2(C(=O)N[C@@H](CCC(=O)O)C(=O)N[C@@H](CC(N)=O)C(=O)N[C@@H](Cc3cccnc3)C(=O)N(C)CC(N)=O)CCS(=O)(=O)CC2)C(C)(C)SSC1(C)C` [Compound 46] (X4-[Pen]HT[Trp(7-cPr)]Q[Pen][Phe(4-OC2H4NH2,2,3-(CH2)3)][2Nal][Thp(SO2)]EN[3Pal][Sar]-NH2; disulfide 1-6) yielded an IC50 of 0.095 nM.

In turn, `CC(=O)N[C@@H](CCC(=O)NCCOCCOCC(=O)NCCOCCOCC(=O)NCCCC[C@@H]1NC(=O)[C@H](Cc2c[nH]c3c(C4CC4)cccc23)NC(=O)[C@H]([C@@H](C)O)NC(=O)[C@H](Cc2c[nH]cn2)NC(=O)[C@@H](NC(C)=O)C(C)(C)SSC(C)(C)[C@@H](C(=O)N[C@@H](Cc2ccc(OCCN)c3c2CCC3)C(=O)N[C@@H](Cc2ccc3ccccc3c2)C(=O)NC2(C(=O)N[C@@H](CCC(=O)O)C(=O)N[C@@H](CC(N)=O)C(=O)N[C@@H](Cc3cccnc3)C(=O)N(C)CC(N)=O)CCS(=O)(=O)CC2)NC1=O)C(=O)O` [Compound 47] (Ac-[Pen]HT[Trp(7-cPr)]K([AEEA-AEEA-γGlu-Ac])[Pen][Phe(4-OC2H4NH2,2,3-(CH2)3)][2Nal][Thp(SO2)]EN[3Pal][Sar]-NH2; disulfide 1-6) yielded an IC50 of 0.093 nM.

In turn, `C[C@@H](O)[C@@H]1NC(=O)[C@H](Cc2c[nH]cn2)NC(=O)[C@@H](NC(=O)COCCOCCNC(=O)COCCOCCNC(=O)CC[C@H](NC(=O)CCCCC(=O)O)C(=O)O)C(C)(C)SSC(C)(C)[C@@H](C(=O)N[C@@H](Cc2ccc(OCCN)c3c2CCC3)C(=O)N[C@@H](Cc2ccc3ccccc3c2)C(=O)NC2(C(=O)N[C@@H](CCC(=O)O)C(=O)N[C@@H](CC(N)=O)C(=O)N[C@@H](Cc3cccnc3)C(=O)N(C)CC(N)=O)CCS(=O)(=O)CC2)NC(=O)[C@H](CCC(N)=O)NC(=O)[C@H](Cc2c[nH]c3c(C4CC4)cccc23)NC1=O` [Compound 48] ({Adipoyl-γGlu-AEEA-AEEA}-[Pen]HT[Trp(7-cPr)]Q[Pen][Phe(4-OC2H4NH2,2,3-(CH2)3)][2Nal][Thp(SO2)]EN[3Pal][Sar]-NH2; disulfide 1-6) had an IC50 of 0.058 nM.

Take `CC(=O)N[C@@H]1C(=O)N[C@@H](Cc2c[nH]cn2)C(=O)N[C@@H]([C@@H](C)O)C(=O)N[C@@H](Cc2c[nH]c3c(C4CC4)cccc23)C(=O)N[C@@H](CCCCNC(=O)COCCOCCNC(=O)COCCOCCNC(=O)CC[C@H](NC(=O)CCCCC(=O)O)C(=O)O)C(=O)N[C@H](C(=O)N[C@@H](Cc2ccc(OCCN)c3c2CCC3)C(=O)N[C@@H](Cc2ccc3ccccc3c2)C(=O)NC2(C(=O)N[C@@H](CCC(=O)O)C(=O)N[C@@H](CC(N)=O)C(=O)N[C@@H](Cc3cccnc3)C(=O)N(C)CC(N)=O)CCS(=O)(=O)CC2)C(C)(C)SSC1(C)C` [Compound 49] (Ac-[Pen]HT[Trp(7-cPr)]K([AEEA-AEEA-γGlu-Adipoyl])[Pen][Phe(4-OC2H4NH2,2,3-(CH2)3)][2Nal][Thp(SO2)]EN[3Pal][Sar]-NH2; disulfide 1-6): the IC50 was determined as 0.068 nM.

Take `CC(=O)NCCCC[C@@H]1NC(=O)[C@H](Cc2c[nH]c3c(C)cccc23)NC(=O)[C@H]([C@@H](C)O)NC(=O)[C@H](Cc2c[nH]cn2)NC(=O)[C@@H](NC(C)=O)CCCC[C@@H](C(=O)N[C@@H](Cc2ccc(OCCN)c3c2CCC3)C(=O)N[C@@H](Cc2ccc3ccccc3c2)C(=O)NC2(C(=O)N[C@@H](CCC(=O)O)C(=O)N[C@@H](CC(N)=O)C(=O)N[C@@H](Cc3cccnc3)C(=O)N(C)CC(N)=O)CCOCC2)NC1=O` [Compound 52]: the concentration for half-maximal inhibition (IC50) was 0.101 nM.

As for `Cc1cccc2c(C[C@@H]3NC(=O)[C@H]([C@@H](C)O)NC(=O)[C@H](Cc4c[nH]cn4)NC(=O)C4NC(=O)COCCOCCOCCOCCNC(=O)CC[C@@H](C(=O)N[C@@H](CC(N)=O)C(=O)N[C@@H](Cc5cccnc5)C(=O)N(C)CC(N)=O)NC(=O)C5(CCS(=O)(=O)CC5)NC(=O)[C@H](Cc5ccc6ccccc6c5)NC(=O)[C@H](Cc5ccc(OCCN)cc5)NC(=O)[C@@H](NC(=O)[C@H](CCC(N)=O)NC3=O)C(C)(C)SSC43CC3)c[nH]c12` [Compound 53] ([NH(CH2CH2O)4CH2CO][X1]HT[Trp(7-Me)]Q[Pen][AEF][2Nal][Thp(SO2)]EN[3Pal][Sar]-NH2; disulfide 2-7; lactam N-11), the IC50 stood at 0.065 nM.

For the compound `CC(=O)NC1C(=O)N[C@@H](Cc2c[nH]cn2)C(=O)N[C@@H]([C@@H](C)O)C(=O)N[C@@H](Cc2c[nH]c3c(C4CC4)cccc23)C(=O)N[C@@H](CCC(N)=O)C(=O)NC(C(=O)N[C@@H](Cc2ccc(OCCN)c3c2CCC3)C(=O)N[C@@H](Cc2ccc3ccccc3c2)C(=O)NC2(C(=O)N[C@@H](CCC(=O)O)C(=O)N[C@@H](CC(N)=O)C(=O)N[C@@H](Cc3cccnc3)C(=O)N(C)CC(N)=O)CCS(=O)(=O)CC2)C2(CC2)SSC12CC2` (stereo partly shown) [Compound 54] (Ac-[X1]HT[Trp(7-cPr)]Q[X1][Phe(4-OC2H4NH2,2,3-(CH2)3)][2Nal][Thp(SO2)]EN[3Pal][Sar]-NH2; disulfide 1-6), the half-maximal inhibitory concentration (IC50) was 0.091 nM.

`CC(=O)NC1C(=O)N[C@@H](Cc2c[nH]cn2)C(=O)N[C@@H]([C@@H](C)O)C(=O)N[C@@H](Cc2c[nH]c3c(C)cccc23)C(=O)N[C@@H](CCC(N)=O)C(=O)NC(C(=O)N[C@@H](Cc2ccc(OCCN)c3c2CCC3)C(=O)N[C@@H](Cc2ccc3ccccc3c2)C(=O)NC2(C(=O)N[C@@H](CCC(=O)O)C(=O)N[C@@H](CC(N)=O)C(=O)N[C@@H](Cc3cccnc3)C(=O)N(C)CC(N)=O)CCS(=O)(=O)CC2)C2(CC2)SSC12CC2` (stereo partly shown) [Compound 55] (Ac-[X1]HT[Trp(7-Me)]Q[X1][Phe(4-OC2H4NH2,2,3-(CH2)3)][2Nal][Thp(SO2)]EN[3Pal][Sar]-NH2; disulfide 1-6): the 50% inhibitory concentration (IC50) came to 0.068 nM.

The IC50 is the midpoint of a concentration-inhibition curve.
